Assay results reported in US9708259B2 (Hoffmann-La Roche Inc., priority 2013, dated 2017).
Where a chain is given by its changes, count along the chain named. Read-outs that look alike come from different tables or passages of the source.

Assays:
human M1 = target: T1, human M1 (Homo sapiens, UniProt P11229); assay: M1 PAM assay (FLIPR intracellular calcium), human M1; format: cell-based
T1 construct: expressed in transfected cells; host or cells: CHO cells
T1 sequence (P11229 1-460): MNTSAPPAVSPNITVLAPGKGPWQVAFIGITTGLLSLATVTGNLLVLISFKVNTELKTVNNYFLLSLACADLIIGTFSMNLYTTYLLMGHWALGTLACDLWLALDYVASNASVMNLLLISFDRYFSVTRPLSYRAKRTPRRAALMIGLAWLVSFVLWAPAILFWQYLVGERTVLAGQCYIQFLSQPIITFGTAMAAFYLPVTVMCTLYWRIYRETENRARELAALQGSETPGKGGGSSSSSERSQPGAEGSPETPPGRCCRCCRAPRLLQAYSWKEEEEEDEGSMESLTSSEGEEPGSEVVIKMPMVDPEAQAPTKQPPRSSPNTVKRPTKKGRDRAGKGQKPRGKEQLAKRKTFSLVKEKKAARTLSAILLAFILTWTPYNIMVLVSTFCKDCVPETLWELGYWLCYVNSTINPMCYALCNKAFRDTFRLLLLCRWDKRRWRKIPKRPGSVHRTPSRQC
Description: The assay study the effect of several concentrations of test compounds on basal or acetylcholine-stimulated Ca^2+ levels using FLIPR.
CHO human M1 are plated the day before the experiments at 2×10^5 cells/ml in PDL BioCoat 96 well black/clear plate (Becton 35 4640). The cells are grown at 37° C. and 5% CO2 in the following medium: F12 Nut Mix (Gibco 21765), 10% FCS heat inactivated (GIBCO 16000-044), 1% Pen Strep (Gibco,15140) and 200 μg/ml Geneticin (Gibco 11811). On the day of the experiment, the medium was removed and replaced by […] of dye loading buffer containing Hanks Balanced Salt solution (HBSS, 14065-049, Gibco) with 20 mM HEPES (Gibco 15630-056), 2 mM Probenicid (Sigma P8761), […] ester (Molecular Probes F-14202), 10% Pluronic acid Molecular Probes P-3000) pH=7.4 and incubated at 37° C. After 60 minutes extracellular dye was removed and the cells were washed five times with FLIPR buffer containing HBSS (Gibco 14065-049) with 20 mM HEPES (Gibco, 15630-056), 2 mM Probenicid (Sigma P8761) pre-warmed at 37° C. using and Ebml cell washer leaving […] of FLIPR buffer in each well. The cell plate and the diluted compounds (1% DMSO final concentration) are placed on the platform of the FLIPR and the door closed. A signal test to check background fluorescence and basal fluorescence signal is performed. Laser intensity is adjusted if necessary. Two minutes preincubation with the diluted test compounds is provide to determine any agonist activity on the M1 receptor by comparison to 30 nM Acetylcholine control. In order to determine any modulator activity the diluted compounds were added to cells and after two minutes preincubation, the EC20 of acetylcholine is added followed by another two minutes preincubation before the measurement of intracellular Ca^2+ with a FLIPR (Molecular Devices).

ratM1 = target: T2, ratM1 (Rattus norvegicus, UniProt P08482); assay: M1 PAM assay (FLIPR intracellular calcium), rat M1; format: cell-based
T2 construct: expressed in transfected cells; host or cells: CHO cells (stated generally for the assay, not specifically for rat M1)
T2 sequence (P08482 1-460): T1 sequence (P11229 1-460) with A5V, T254S, P309S, R320K, A337G, I413V

[1] = CHO human M1 cells, FLIPR Ca2+, with EC20 of acetylcholine, first value of the cell, read-out: hM1 EC50
[2] = rat M1, FLIPR Ca2+, second value of the cell, read-out: ratM1 EC50

Structure (SMILES) | EC50 (human M1; [1]) [nM] | EC50 (ratM1; [2]) [nM] | EC50 (human M1) [nM] | EC50 (ratM1) [nM]
Cn1cc(-c2ccc(Cn3cc(C(=O)N[C@H]4CCCC(F)(F)[C@@H]4O)c4c(F)cccc43)c(F)c2)cn1 [Example 103, N-((1S,2R)-3,3-difluoro-2-hydroxycyclohexyl)-4-fluoro-1-(2-fluoro-4-(1-methyl-1H-pyrazol-4-yl)benzyl)-1H-indole-3-carboxamide] | 7 | 32 | – | –
Cn1cc(-c2ccc(Cn3cc(C(=O)N[C@H]4CCCC[C@@H]4O)c4c(F)c(F)c(F)c(F)c43)cc2)cn1 [Example 53, 4,5,6,7-tetrafluoro-N-((1S,2S)-2-hydroxycyclohexyl)-1-(4-(1-methyl-1H-pyrazol-4-yl)benzyl)-1H-indole-3-carboxamide] | 44.1 | 47.5 | – | –
Cn1ncc2cc(Cn3cc(C(=O)N[C@H]4CCCC[C@@H]4O)c4c(F)cccc43)ccc21 [Example 37, 4-fluoro-N-((1S,2S)-2-hydroxycyclohexyl)-1-((1-methyl-1H-indazol-5-yl)methyl)-1H-indole-3-carboxamide] | – | – | 43.8 | 39.5
COc1ccc(F)c2c(C(=O)N[C@H]3CCCC[C@@H]3O)cn(Cc3ccc(-c4cnn(C)c4)cc3F)c12 [Example 149, 4-fluoro-1-(2-fluoro-4-(1-methyl-1H-pyrazol-4-yl)benzyl)-N-((1S,2S)-2-hydroxycyclohexyl)-7-methoxy-1H-indole-3-carboxamide] | 438 | 348 | – | –
CNC(=O)c1ccc(Cn2cc(C(=O)NC3CCCCCC3)c3c(F)cccc32)cc1 [Example 115, N-cycloheptyl-4-fluoro-1-[[4-(methylcarbamoyl)phenyl]methy]indole-3-carboxamide] | 50 | 28 | – | –
CNC(=O)c1ccc(Cn2cc(C(=O)NC3CCCOC3)c3c(F)cccc32)cc1 (stereo not shown) [Example 122, 4-fluoro-1-[[4-(methylcarbamoyl)phenyl]methyl]-N-(oxan-3-yl)indole-3-carboxamide] | 62 | 154 | – | –
Cn1cc(-c2ccc(Cn3cc(C(=O)N[C@H]4COCC[C@@H]4O)c4c(F)cccc43)c(F)c2)cn1 [Example 22, 4-fluoro-1-(2-fluoro-4-(1-methyl-1H-pyrazol-4-yl)benzyl)-N-((3S,4S)-4-hydroxytetrahydro-2H-pyran-3-yl)-1H-indole-3-carboxamide] | 17.8 | 60.5 | – | –
Cn1cc(-c2ccc(Cn3cc(C(=O)NC[C@H]4CCCO4)c4c(F)cccc43)cc2)cn1 [Example 10, (R)-4-fluoro-1-(4-(1-methyl-1H-pyrazol-4-yl)benzyl)-N-((tetrahydrofuran-2-yl)methyl)-1H-indole-3-carboxamide] | 256 | 398 | – | –
CNC(=O)c1ccc(Cn2cc(C(=O)NC3CCCC(F)(F)C3)c3c(F)cccc32)cc1 (stereo not shown) [Example 118, N-(3,3-difluorocyclohexyl)-4-fluoro-1-[[4-(methylcarbamoyl)phenyl]methyl]indole-3-carboxamide] | 9 | 29 | – | –
CNC(=O)c1ccc(Cn2cc(C(=O)NC3CCCCC3F)c3c(F)cccc32)cc1 (stereo not shown) [Example 121, 4-fluoro-N-(2-fluorocyclohexyl)-1-[[4-(methylcarbamoyl)phenyl]methyl]indole-3-carboxamide] | 6 | 17 | – | –
Cn1cc(-c2ccc(Cn3cc(C(=O)NC4CCOCC4)c4c(F)cccc43)cn2)cn1 [Example 68, 4-fluoro-1-((6-(1-methyl-1H-pyrazol-4-yl)yridine-3-yl)methyl)-N-(tetrahydro-2H-pyran-4-yl)-1H-indole-3-carboxamide] | 267 | 182 | – | –
CNC(=O)c1ccc(Cn2cc(C(=O)NC3CCOC(C)(C)C3)c3c(F)cccc32)cc1 (stereo not shown) [Example 119, N-(2,2-dimethyloxan-4-yl)-4-fluoro-1-[[4-(methylcarbamoyl)phenyl]methyl]indole-3-carboxamide] | 6 | 12 | – | –
COc1ccc(Cn2cc(C(=O)N[C@H]3CCCC[C@@H]3O)c3c(F)cccc32)cc1 [Example 31, 4-fluoro-N-((1S,2S)-2-hydroxycyclohexyl)-1-(4-methoxybenzyl)-1H-indole-3-carboxamide] | – | – | 90.6 | 160
CNC(=O)c1ccc(Cn2cc(C(=O)N[C@H]3CCCC[C@@H]3O)c3c(F)cccc32)c(F)c1 [Example 86, 4-fluoro-1-(2-fluoro-4-(methylcarbamoyl)benzyl)-N-((1S,2S)-2-hydroxycyclohexyl)-1H-indole-3-carboxamide] | 6.91 | 13 | – | –
CCc1ccc(F)c2c(C(=O)NC3CCOCC3)cn(Cc3ccc4c(cnn4C)c3)c12 [Example 128, 7-ethyl-4-fluoro-1-((1-methyl-1H-indazol-5-yl)methyl)-N-(tetrahydro-2H-pyran-4-yl)-1H-indole-3-carboxamide] | – | – | 289 | 1240
Cc1ccc(F)c2c(C(=O)NC3CCOCC3)cn(Cc3ccc4c(cnn4C)c3)c12 [Example 134, 4-fluoro-7-methyl-1-((1-methyl-1H-indazol-5-yl)methyl)-N-(tetrahydro-2H-pyran-4-yl)-1H-indole-3-carboxamide] | – | – | 25 | 76
Cn1cc(-c2ccc(Cn3cc(C(=O)NC4CCCOC4)c4c(F)cccc43)c(F)c2)cn1 (stereo not shown) [Example 19, 4-fluoro-1-(2-fluoro-4-(1-methyl-1H-pyrazol-4-yl)benzyl)-N-(tetrahydro-2H-pyran-3-yl)-1H-indole-3-carboxamide] | 229 | 579 | – | –
CNC(=O)c1ccc(Cn2cc(C(=O)NC3CCCCC3)c3c(F)cccc32)cc1 [Example 114, N-cyclohexyl-4-fluoro-1-[[4-(methylcarbamoyl)phenyl]methyl]indole-3-carboxamide] | 17 | 15 | – | –
CNC(=O)c1ccc(Cn2cc(C(=O)N[C@H]3CCCC[C@@H]3O)c3c(F)cccc32)cn1 [Example 87, 4-fluoro-N-((1S,2S)-2-hydroxycyclohexyl)-1-((6-(methylcarbamoyl)pyridin-3-yl)methyl)-1H-indole-3-carboxamide] | 73.4 | 120 | – | –
Cn1cc(-c2ccc(Cn3cc(C(=O)N[C@H]4CCOC[C@@H]4O)c4c(F)c(F)c(F)c(F)c43)cc2)cn1 (single isomer, unassigned) [Example 63, 4,5,6,7-Tetrafluoro-N-((3R,4S) or (3S,4R)-3-hydroxytetrahydro-2H-pyran-4-yl)-1-(4-(1-methyl-1H-pyrazol-4-yl)benzyl)-1H-indole-3-carboxamide] | 19.6 | 54.2 | – | –
O=C(N[C@H]1CCCC[C@@H]1O)c1cn(Cc2ccc(F)cc2)c2cccc(F)c12 [Example 42, 4-fluoro-1-(4-fluorobenzyl)-N-((1S,2S)-2-hydroxycyclohexyl)-1H-indole-3-carboxamide] | – | – | 110 | 200
O=C(N[C@H]1CCCC[C@@H]1O)c1cn(Cc2cnc(-c3ccccc3)nc2)c2cccc(F)c12 [Example 139, 4-fluoro-N-((1S,2S)-2-hydroxycyclohexyl)-1-((2-phenylpyrimidin-5-yl)methyl)-1H-indole-3-carboxamide] | 423 | 2630 | – | –
Cn1ncc2cc(Cn3cc(C(=O)NC4CCOCC4)c4c(F)cccc43)ccc21 [Example 66, 4-fluoro-1-((1-methyl-1H-indazol-5-yl)methyl)-N-(tetrahydro-2H-pyran-4-yl)-1H-indole-3-carboxamide] | – | – | 216 | 412
